Earlier results in Sander's compilation of Henry's law constants (doi:10.1021/je0497045).

Experiment: Henry solubility constant Hcp at 298.15 K (mol/(m3 Pa))
Conditions: reference: Plyasunova et al. (2004); cited value

Row | SMILES | Henry solubility constant Hcp
1 | CCCCS [1-butanethiol] | 0.0014
2 | CCCCCCCS [1-heptanethiol] | 0.00042
3 | CCCCCCS [1-hexanethiol] | 0.00052
4 | CCCCCS [1-pentanethiol] | 0.00087
5 | CCCS [1-propanethiol] | 0.0017
6 | CSSSC [2,3,4-trithiapentane] | 0.012
7 | CCC(C)S (centres undefined) [2-butanethiol] | 0.0013
8 | CC(C)(C)S [2-methyl-2-propanethiol] | 0.00045
9 | CC(C)CCS [3-methyl-1-butanethiol] | 0.00095
10 | S=C=S [carbon disulfide] | 0.00055
11 | CC(C)SC(C)C [di-(2-propyl)-sulfide] | 0.003
12 | CCSSCC [diethyl disulfide] | 0.004
13 | CCSCC [diethyl sulfide] | 0.0047
14 | CSC [dimethyl sulfide] | 0.0053
15 | CCCSSCCC [dipropyl disulfide] | 0.0022
16 | CCCSCCC [dipropyl sulfide] | 0.0033
17 | CCS [ethanethiol] | 0.0023
18 | CS [methanethiol] | 0.0028
19 | CCCSC [methyl propyl sulfide] | 0.0043
